In ChEMBL document CHEMBL4138192, “Design, synthesis and evaluation of novel dihydrostilbene derivatives as potential anti-melanogenic skin-protecting agents” (Eur J Med Chem, 2018):
The source made the active and inactive calls. No cut-off for these calls is given here.

Legend:
[1] = target: T1, Tyrosinase (Mus musculus) (UniProt P11344); test: Inhibition of tyrosinase in mouse B16 cells at 25 uM using L-DOPA as substrate after 24 hrs by spectrophotometric method; format: cell-based
T1 sequence (whole entry): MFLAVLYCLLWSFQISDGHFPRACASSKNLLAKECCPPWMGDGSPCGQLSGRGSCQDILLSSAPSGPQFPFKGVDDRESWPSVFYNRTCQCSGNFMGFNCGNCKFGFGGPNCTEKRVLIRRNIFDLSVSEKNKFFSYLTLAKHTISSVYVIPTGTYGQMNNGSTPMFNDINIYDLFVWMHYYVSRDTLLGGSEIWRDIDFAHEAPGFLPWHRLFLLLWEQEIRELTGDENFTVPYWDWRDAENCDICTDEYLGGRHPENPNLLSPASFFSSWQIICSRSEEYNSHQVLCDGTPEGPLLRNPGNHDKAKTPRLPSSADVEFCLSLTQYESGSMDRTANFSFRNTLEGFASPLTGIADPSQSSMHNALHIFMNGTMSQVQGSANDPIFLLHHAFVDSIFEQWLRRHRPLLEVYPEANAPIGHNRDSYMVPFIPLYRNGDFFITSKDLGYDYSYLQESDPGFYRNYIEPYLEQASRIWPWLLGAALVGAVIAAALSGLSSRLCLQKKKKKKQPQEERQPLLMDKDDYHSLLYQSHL

[2] = tested on: A-375; test: Inhibition of alpha-MSH-induced TRP-1 expression in human A375 cells at 25 uM after 24 hrs by Western blot method; format: functional, cell-based
[3] = Growth inhibition of human A375 cells at 25 uM after 48 hrs by SRB assay relative to control; format: cell-based, A-375; details: read-out: GI
[4] = tested on: A-375; test: Inhibition of alpha-MSH-induced TRP-2 expression in human A375 cells at 25 uM after 24 hrs by Western blot method; format: functional, cell-based
[5] = tested on: A-375; test: Inhibition of alpha-MSH-induced reactive oxygen species generation in human A375 cells at 25 uM after 4 hrs by DCFDA staining-based fluorescence assay; format: functional, cell-based
[6] = Antioxidant activity assessed as ABTS radical scavenging activity at 25 uM after 15 mins; format: functional; parameters: reference not given here
[7] = target: T2, Tyrosinase (Homo sapiens) (UniProt P14679); test: Inhibition of tyrosinase in human A375 cells at 25 uM using L-DOPA as substrate after 24 hrs by spectrophotometric method; format: cell-based
T2 sequence (whole entry): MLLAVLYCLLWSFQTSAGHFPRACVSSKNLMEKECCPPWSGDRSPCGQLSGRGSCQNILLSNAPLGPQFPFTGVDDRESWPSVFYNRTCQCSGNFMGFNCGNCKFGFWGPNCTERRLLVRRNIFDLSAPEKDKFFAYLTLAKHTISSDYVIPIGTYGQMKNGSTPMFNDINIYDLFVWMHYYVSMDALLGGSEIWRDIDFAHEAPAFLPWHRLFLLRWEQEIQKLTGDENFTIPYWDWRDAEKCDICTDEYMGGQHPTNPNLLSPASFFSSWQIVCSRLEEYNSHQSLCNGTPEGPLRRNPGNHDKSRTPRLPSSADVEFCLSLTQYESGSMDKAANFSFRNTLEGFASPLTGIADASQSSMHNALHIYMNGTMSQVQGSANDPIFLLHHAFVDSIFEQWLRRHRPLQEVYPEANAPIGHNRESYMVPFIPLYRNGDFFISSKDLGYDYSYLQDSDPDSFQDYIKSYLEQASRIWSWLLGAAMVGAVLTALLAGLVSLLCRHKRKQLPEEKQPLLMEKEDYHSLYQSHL

[8] = target: T2, Tyrosinase (Homo sapiens); test: Inhibition of tyrosinase in human A375 cells assessed as effect on alpha-MSH-induced melanin formation at 25 uM after 24 hrs relative to control; format: cell-based; parameters: scale not given: the % may be the effect or the level left
[9] = target: T1, Tyrosinase (Mus musculus); test: Inhibition of tyrosinase in mouse B16 cells assessed as effect on alpha-MSH-induced melanin formation at 25 uM after 24 hrs relative to control; format: cell-based; parameters: scale not given: the % may be the effect or the level left
[10] = Growth inhibition of mouse B16 cells at 25 uM after 48 hrs by SRB assay relative to control; format: cell-based; details: read-out: GI

Structure (SMILES) | inhibition [1] | inhibition [7] | Activity [8] | Activity [9] | inhibition [2] | inhibition at 48 h, 25 µM [3] | inhibition [4] | inhibition [5] | Activity [6] | inhibition at 48 h, 25 µM [10]
O=C(Oc1ccc(CCc2cc(OC(=O)c3ccccc3)cc(OC(=O)c3ccccc3)c2)cc1)c1ccccc1 |  |  | 85.2% | 87% |  | 4.55% |  |  |  | 4.92%
CC(C)(C)C(=O)Oc1ccc(CCc2cc(OC(=O)C(C)(C)C)cc(OC(=O)C(C)(C)C)c2)cc1 |  |  | 94.6% | 93% |  | 9.53% |  |  |  | 6.91%
Oc1ccc(/C=C/c2cc(O)cc(O)c2)cc1 [RESVERATROL] |  |  | 80.4% | 80.2% | Active | 9.79% | Active | Active |  | 13.1%
O=C1O[C@H]([C@@H](O)CO)C(O)=C1O [ASCORBIC ACID] |  |  | 75% | 83.7% | Active | 8.63% | Active |  |  | 4.94%
CCCOc1ccc(CCc2cc(OCCC)cc(OCCC)c2)cc1 |  |  | 85.1% | 94.7% |  | 3.36% |  |  | 30.2 mg.equiv | 1.34%
Oc1ccc(CCc2cc(O)cc(O)c2)cc1 [DIHYDRORESVERATROL] |  |  | 78% | 78.3% | Active | 6.42% | Active | Active | 4970 mg.equiv | 5.2%

Second part, led by results:

inhibition [1] | inhibition [7] | Activity [8] | Activity [9] | Structure (SMILES) | inhibition [2] | inhibition at 48 h, 25 µM [3] | inhibition [4] | inhibition [5] | Activity [6] | inhibition at 48 h, 25 µM [10]
Active | Active | 50.5% | 76% | C=CC(=O)Oc1ccc(CCc2cc(OC(=O)C=C)cc(OC(=O)C=C)c2)cc1 | Active | 15.6% | Active | Active | 15.9 mg.equiv | 13.9%
inactive | Active | 88.1% | 96.5% | C=CCOc1ccc(CCc2cc(OCC=C)cc(OCC=C)c2)cc1 |  | 6.83% |  |  | 119 mg.equiv | 1.31%
 |  | 92.4% | 89.9% | O=C(OCc1ccccc1)Oc1ccc(CCc2cc(OC(=O)OCc3ccccc3)cc(OC(=O)OCc3ccccc3)c2)cc1 |  | 6.35% |  |  |  | 5.12%
 |  | 97.2% | 95.9% | O=C(Oc1ccc(CCc2cc(OC(=O)C3CCCC3)cc(OC(=O)C3CCCC3)c2)cc1)C1CCCC1 |  | 14.3% |  |  |  | 9.69%
inactive | Active | 98.9% | 96.2% | CCCC(=O)Oc1ccc(CCc2cc(OC(=O)CCC)cc(OC(=O)CCC)c2)cc1 |  | 17.9% |  |  | 94.3 mg.equiv | 4.81%
 |  | 93.4% | 99.2% | O=C(Oc1ccc(CCc2cc(OC(=O)c3ccc(Cl)cc3)cc(OC(=O)c3ccc(Cl)cc3)c2)cc1)c1ccc(Cl)cc1 |  | 21.5% |  |  |  | 5.26%
 |  | 104% | 94.7% | COc1ccc(C(=O)Oc2ccc(CCc3cc(OC(=O)c4ccc(OC)cc4)cc(OC(=O)c4ccc(OC)cc4)c3)cc2)cc1 |  | 6.05% |  |  |  | 5.12%
